Laboratory results from patent US20230292776A1, “GAS PHASE TREATMENT OF PRODUCE” (priority 2022, published 2023).

Tests used:
mandarins = assay: Visible appearance of vapor-treated mandarins; format: in vivo, mandarin
Experimental: Example 1. The antifungal activity of diallyl disulfide (DADS) vapor against Penicillium digitatum (Pd) was tested in mandarins. All samples were wounded by puncturing with a screw and infected by dispensing 1000 Pd spores suspended in 10 μL of water into each wound. The test groups consisted of mandarins that were: untreated; dipped in a solution of 1 g/L of imazalil; and exposed for 72 hours to the vapor of 3 mL of DADS in a Petri dish.
Example 2. The antifungal activity of allyl isothiocyanate (AITC) and DADS vapor was tested against Pd and Penicillium italicum (Pi) in mandarins. All samples were wounded by puncturing with a screw. Mandarins were infected by dispensing either 1000 Pd spores or 1000 Pi spores suspended in 10 μL into the wound. The test groups consisted of mandarins that were: uninfected and untreated; uninfected and treated by dipping in a solution of 1 g/L of imazalil; infected with Pd and untreated; infected with Pd and exposed to AITC; infected with Pd and exposed to DADS; infected with Pi and untreated; infected with Pi and exposed to AITC; and infected with Pi and exposed to DADS. Exposure to AITC or DADS consisted of exposing the mandarins for 72 hours to the vapor of 3 mL of the respective compound dispensed in a Petri dish. […] DADS vapor reduced the incidence of Pd mold by 85% and Pi mold by 30% compared to the respective untreated/infected test groups. […] Both AITC and DADS were effective at preventing fungal growth. The inhibition from AITC was approximately 100%, with some changes in visible appearance.
Example 3. The antifungal activity of a reduced dose of AITC vapor against Pd in mandarins was tested. All samples were wounded by puncturing with a screw. Mandarins were infected by dispensing 1000 Pd spores suspended in 10 μL of water into each wound. The test groups consisted of mandarins that were: uninfected and untreated; infected with Pd and untreated; and exposed to the vapor of 500 μL of AITC in a Petri dish for 72 hours.
Example 4. The antifungal activity of a range of AITC vapor concentrations was tested against Pd in mandarins. All mandarins were wounded by puncturing with a screw and infected by dispensing 1000 Pd spores suspended in 10 μL of water in each wound. The fruit was then placed in an airtight container, a range of AITC volumes were disposed onto a Whatman filter paper disc, the disc was suspended in front of a battery-powered fan, and the container closed for 18 hours. The mandarins were then left at ambient temperature and high humidity for 6 days. The test groups were mandarins that were infected and untreated, and infected and treated with 62.5 μL 125 μL 250 μL and 500 μL on the filter paper disc. […]
Example 5. […] The test groups were then left at ambient temperature, high humidity, and assessed for Pd mold after 6 days. […]

Botrytis cinerea (Bc) = assay: Antifungal activity of AITC vapor and coating agent against Botrytis cinerea (Bc) in strawberries; format: in vivo; conditions: Example 17; suspended strawberries; day 5

| Compound | fruit with spotting and darkening of the peel (mandarins; Example 5, 125 μL, 2 hour treatment) [%] | visible appearance of mandarins (mandarins; in vivo) | reduction in incidence of mold versus untreated test group (Botrytis cinerea (Bc)) | visible appearance of mandarins (mandarins; Example 1, 72 hours vapor of 3 mL) | visible appearance of mandarins (mandarins; Example 2, 72 hours vapor of 3 mL) |
| --- | --- | --- | --- | --- | --- |
| C=CCN=C=S [AITC, allyl isothiocyanate] | 62.5 | visibly darker than untreated fruit | over 80% | – | – |
| C=CCSSCC=C [DADS, diallyl disulfide] | – | – | – | no visible degradation or discoloration | No difference in appearance |
